{"source": "paper PMC12756182", "about": "“Co-option of an ancestral peptidase controls developmental patterning in multicellular cyanobacteria” (iScience, 2025)", "molecules": {"B1": {"name": "PatX-6 peptide (HRGTGR) (peptide)", "peptide": "HRGTGR", "notes": "also called PatX6 hexapeptide; PatX-derived hexapeptide; source: synthetic peptide (Genecust)"}, "B2": {"name": "HetN: another inhibitor that maintains heterocyst patterning, containing the RGSGR pentapeptide (protein, UniProt P37694 1-287, looked up)", "Ketoacyl reductase HetN": "MTTLTGKTVLLTGASRGLGVYIARALAKEQATVVCVSRSQSGLAQTCNAVKAAGGKAIAIPFDVRNTSQLSALVQQAQDIVGPIDVLINNAGIEINGTFANYSLAEIQSIFNTNLLAAMELTRLLLPSMMERGSGRIVNIASLAGKKGVAFNSVYSASKAGLIMWTDAMRQELVGTGVNISVVCPGYVSQTGMTVDTRVSAPKLAGISTPKSVANAVVKAIKNKTTEVIVNQNPITESLTKLMLAVGQISPTSVDRIYRWFGVVDFNQKRAENRVKDGYVAVESHRS"}}, "key": {"Alr1666 (PatP)": {"tested_on": "Alr1666 (PatP)", "assay": "LC-MS/MS identification of Alr1666-generated non-tryptic PatX peptides", "type": "biochemical, Nostoc PCC 7120", "conditions": "LC-MS/MS of excised 18–25 kDa gel region; three experimental replicates; with vs without Alr1666-V5", "text": "Figure 5 Ex vivo cleavage assay of TrxA-PatXΔSS-MBP by the putative peptidase Alr1666 (A) Schematic of the TrxA-PatXΔSS-MBP fusion protein construct, shown before and after potential cleavage by Alr1666. (B) Immunoblot analysis of cleavage assays. Expression of trxA-patXΔSS-malE was induced with IPTG; expression of alr1666-V5 was induced with arabinose. The blot was probed with anti-TrxA antibodies (top panel) to detect the full-length TrxA-PatXΔSS-MBP fusion and any TrxA-PatX cleavage product, and with anti-V5 antibodies (bottom panel) to confirm Alr1666-V5 production. Lanes: 1, no inducer (negative control); 2, IPTG for 3 h; 3, IPTG for 1 h; 4, co-induction with IPTG and arabinose for 3 h; 5, sequential induction (IPTG for 1 h, then arabinose for 3 h). (C) Liquid chromatography-tandem mass spectrometry analysis of peptides from excised gel bands (see Figure S6A). […] Trx-PatXΔSS-MBP + Alr1666-V5: Experimental assay with Alr1666-V5. ∗0 values: No non-tryptic peptides were detected in control samples. […]\nThe 18–25 kDa region was excised to identify PatX-cleavage peptides by mass spectrometry (Figure S6A). Because higher molecular-weight bands smear downward during SDS-PAGE, the excised slice also contains proteins from those upper regions, and they will be detected as well. […] They were uniquely detected in Alr1666-expressing samples ([…]). […]"}, "HetR / hetP promoter": {"tested_on": "HetR / hetP promoter", "assay": "EMSA of HetR with the hetP promoter", "type": "biochemical, Nostoc PCC 7120", "conditions": "HetR 1 μM, hetP promoter 50 nM (6-FAM), peptide 1 μM, pH 8, 4°C, 30 minutes, one representative result", "protocol": "Heterocysts are indicated by white arrows. Time denotes hours post combined nitrogen starvation. Scale bars, 30 μm. […] Sector 1: wild-type. Sector 2: malE mutant. […] Red color indicates MBP periplasmic export.\nThe hetP gene promoter (alr2818) was amplified by PCR using PhetP fw and PhetP rv primers, with the forward primer labeled at the 5′ end with 6-FAM. Purified HetR protein (as previously described),[3] was incubated with the hetP promoter (50 nM) in a buffer containing 10 mM Tris (pH 8), 150 mM KCl, 500 nM EDTA, 0.1% Triton X-100, 12.5% glycerol, 1 mM DTT, and 1 μg DiDC competitor at 4°C in the dark for 30 minutes. Electrophoresis was conducted at 250 V for 60 minutes, and DNA was visualized using the Typhoon FLA 9500."}, "HetR [1]": {"target": "T1, HetR (Nostoc sp., UniProt P27709)", "T1 construct": "made in house", "T1 sequence (P27709 1-299)": "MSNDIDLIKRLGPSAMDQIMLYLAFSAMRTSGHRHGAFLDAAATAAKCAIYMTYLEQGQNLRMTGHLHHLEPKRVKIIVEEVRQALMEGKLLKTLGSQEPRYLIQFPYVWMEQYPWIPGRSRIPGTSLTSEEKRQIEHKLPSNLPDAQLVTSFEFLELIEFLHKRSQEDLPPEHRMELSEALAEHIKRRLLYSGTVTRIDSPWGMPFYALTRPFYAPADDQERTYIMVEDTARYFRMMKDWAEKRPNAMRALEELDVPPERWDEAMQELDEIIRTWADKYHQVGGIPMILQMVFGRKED", "conditions": "cited from earlier work", "text": "Heterocyst differentiation involves four stages—induction, pattern formation, commitment, and morphogenesis—regulated by signaling cascades involving the master transcriptional regulator HetR.[10] Nitrogen starvation triggers 2-oxoglutarate (2-OG) accumulation, activating NtcA to upregulate hetR.[11]^,[12] Deletion of hetR prevents differentiation, while its overexpression induces contiguous heterocysts formation even under non-permissive conditions.[10] HetR initiates a negative feedback loop by activating patS expression.[13] The resulting 17-amino-acid product is processed into the signalin ..."}, "[2]": {"tested_on": "Nostoc heterocyst differentiation", "conditions": "cited from earlier work"}, "[3]": {"tested_on": "Nostoc PCC 7120 heterocyst differentiation", "conditions": "cited from earlier work", "text": "While hetR is conserved across heterocyst-forming cyanobacteria, patS and hetN are not,[23] implying the existence of additional inhibitory factors. Recently, PatX, containing the HRGTGR hexapeptide, was identified as coextensive with HetR in filamentous cyanobacteria.[23]"}, "HetR (Nostoc PCC 7120)": {"target": "T2, HetR (Nostoc PCC 7120) (UniProt P27709)", "T2 sequence": "T1 sequence (P27709 1-299)", "assay": "EMSA", "conditions": "EMSA: 10 mM Tris pH 8, 150 mM KCl, 500 nM EDTA, 0.1% Triton X-100, 12.5% glycerol, 1 mM DTT, 1 ug DiDC competitor (so in the source), 50 nM DNA, 4 C, 30 min in the …"}, "HetR [4]": {"target": "T3, HetR (Nostoc PCC 7120, UniProt P27709 1-299)", "T3 construct": "HetR, master transcriptional regulator of heterocyst differentiation, Nostoc/Anabaena PCC 7120; purified protein used in ITC and EMSA; also called master transcriptional regulator HetR; source: purified (as previously described)", "T3 sequence (looked up)": "T1 sequence (P27709 1-299)", "assay": "ITC; PatX6 (200 μM, syringe) titrated into HetR (22 μM, cell), 25°C, PBS pH 7.4, one-site binding model, MicroCal PEAQ-ITC", "conditions": "both partners purified"}}}
{"molecule": "AFSPSNSQNMISLK [non-tryptic PatX cleavage peptide flanking HRGTGR, detected by mass spectrometry]", "values": [{"measurement": "detection of non-tryptic cleavage peptide", "setting": "Alr1666 (PatP)", "result": "exclusively present in peptidase-producing strains"}]}
{"molecule": "ERGSGR [PatS6, signaling peptide PatS6 (ERGSGR), positive control in EMSA]", "values": [{"measurement": "effect on HetR-hetP promoter interaction", "setting": "HetR / hetP promoter", "result": "abolished this interaction"}, {"measurement": "binding to HetR and effect on its DNA-binding function", "setting": "HetR [1]", "result": "binds to HetR to inhibit its DNA-binding function"}, {"measurement": "effect of exogenous peptide on differentiation", "setting": "[2]", "result": "suppress differentiation"}]}
{"molecule": "GPDIIFWAHDR [non-tryptic PatX cleavage peptide flanking HRGTGR, detected by mass spectrometry]", "values": [{"measurement": "detection of non-tryptic cleavage peptide", "setting": "Alr1666 (PatP)", "result": "exclusively present in peptidase-producing strains"}]}
{"molecule": "PatS: 17-amino-acid product of patS, processed into PatS5 or PatS6 (MKAIMLVNFCDERGSGR; UniProt O52748 1-17, looked up)", "values": [{"measurement": "effect of overexpression on heterocyst differentiation", "setting": "[3]", "result": "inhibits heterocyst differentiation"}]}
{"molecule": "RGSGR [PatS5, signaling peptide PatS5 (RGSGR)]", "values": [{"measurement": "binding to HetR and effect on its DNA-binding function", "setting": "HetR [1]", "result": "binds to HetR to inhibit its DNA-binding function"}, {"measurement": "effect of exogenous peptide on differentiation", "setting": "[2]", "result": "suppress differentiation"}]}
{"molecule": "TGAGTTATACGCTATATCAATGGGGATTTTGAGCATTTTCTACTAGGTAATGAGGGGTTAGACCCCTCGCCTACTGTGCATTTGAGACTTTAAACCTACTAAGAGAATTTACCACTAAAT (double strand) [hetP promoter PCR fragment]", "values": [{"measurement": "binding", "setting": "HetR (Nostoc PCC 7120)", "result": "binds"}]}
{"molecule": "B1", "values": [{"measurement": "Kd", "setting": "HetR [4]", "result": 0.088, "unit": "µM"}]}
{"molecule": "B2", "values": [{"measurement": "effect of overexpression on heterocyst differentiation", "setting": "[3]", "result": "inhibits heterocyst differentiation"}]}
